As a reminder, the EC50 is the concentration that produces a half-maximal response. A low value points to greater potency. One may read the logD as the decadic logarithm of the distribution of all forms, ionised or not, between an organic phase and buffer at a given pH. A high value points to higher lipophilicity.

Series [1] is described as follows: Microsomal stability assay, rat liver microsomes (intrinsic clearance). Type of series: in vitro ADME. How it is done:
(§1) Microsomal Stability Testing—Assay Description
(§2) The microsomal stability assay measures the rate of disappearance of a test compound from an incubation containing human or animal liver microsomes and metabolic cofactors (typically NADPH). The assay is primarily used for ranking the relative CYP-mediated metabolism propensities of compounds within a chemical series and as a guide to selecting sufficiently stable compounds for pharmacokinetics and pharmacodynamics experiments. [In addition to CYPs, microsomally located enzymes which also make use of NADPH (such as […]) and those which require no cofactors (such as carboxylesterases) are active.]
(§3) Incubations are performed in 96-well deep-well plates with a final incubation volume of 600 μL. Incubations contain (finally) 1-20 μM test compound, 0.5 mg/mL liver microsomes (typically human, rat or mouse) and NADPH regenerating system. 50 μL aliquots are removed after 1, 3, 6, 9, 15, 25, 35 and 45 minutes and quenched in 150 μL acetonitrile containing internal standard. Samples are then cooled and centrifuged before analysis by LC-MS/MS.
(§4) Log peak area ratio (test compound peak area/internal standard peak area) is plotted against incubation time and a linear fit made to the data with emphasis upon the initial rate of compound disappearance. […]
(Liver microsomes are a subcellular fraction often used to study metabolism.)

A short description of series [2]: Microsomal stability assay, human liver microsomes (intrinsic clearance). The settings on record: read-out: CLint. (Hum). The format is in vitro ADME. How it is done: as §1, §2, §3, §4
The next series has as its system M17_3TAU(P301L) cells. As to the kind of experiment: Neuroblastoma tauopathy model: inhibition of TAU-induced cytotoxicity (LDH) after retinoic acid differentiation. Type of series: cell-based. The conditions noted are these: Homo sapiens, 168 h, inhibition of TAU-induced toxicity, 7 days retinoic acid, LDH readout. The source says: A TAU expression plasmid was constructed by sub-cloning the cDNA encoding for human TAU-P301L protein, wherein proline at position 301 is substituted by a leucine residue, into mammalian expression vector pcDNA3.1 resulting in the plasmid pcDNA3.1-TAUP301L. Plasmids pcDNA3.1 and pcDNA3.1-TAU P301L were transfected into human neuroblastoma cells (BE-M17; ATCC No. CRL2267™) using lipofectamine reagent and subsequently, independent clonal cell lines with the plasmids stably integrated into the genome were selected by antibiotic resistance selection (Geneticin (G418)), resulting in cell lines M17.pcDNA3 and M17_3TAUP301L. Expression of the TAUP301L gene in the M17_3TAUP301L cells was confirmed by Western blot analysis.
Differentiation of the cells with RA leads to phosphorylation and subsequent aggregation of TAU, inducing a tauopathy in these cells. Cytotoxicity of cells was measured by quantification of lactate dehydrogenase (LDH) levels. In dead cells LDH is leaked out of the cells into the medium due to a loss of plasma-membrane integrity.
Briefly, 3 days preceeding the experiment pre-cultures of M17.pcDNA3 and M17_3TAU(P301L) cells were prepared, starting from a stock culture, at a density of 50.000-100.000 cells/cm2 in detection medium (Optimem Reduced Serum without phenol red (Gibco, Cat. 31985-047) supplemented with 1% fetal calf serum (FCS), 1 mM sodium pyruvate, 1× non-essential amino acids (NEAR), 500 μg/ml G418 and 0.5× antibiotic/antimycotic (ABAM)). At the day of the experiment these precultures were diluted to ˜0, 1.106 cells/ml in detection medium without FCS and 60 μL of this suspension is dispensed per well into a 96-well microtiter plate. After 3 hours of incubation at 37° C./5% CO2 an equal volume of detection medium containing 2.5 μM RA was added and subsequently incubated for 7 days at 37° C./5% CO2. After 7 days, LDH activity was determined using the Promega Cytotox 96 Non-Radioactive cytotoxicity assay (Cat. G1780), according the manufacturer's instructions. Cytotoxicity is measured as the ratio of LDH increase in the supernatant divided by the LDH increase in the total cell suspension (sum of the LDH measured in cells and supernatant).
The M17_3TAU(P301L) cell line makes it possible to assess the ability of novel compounds to inhibit TAU-induced cytotoxicity. […] Compounds were tested for their ability to hamper TAU-induced toxicity at different concentrations, ranging from low non-effective concentrations to high potent concentrations. Afterwards, the dose-dependent inhibition curve was used to calculate their EC50 (Table III).

The nature of series [3]: Lipophilicity (logD) by Carrier mediated distribution system (CAMDIS). Type of series: physicochemical. How it is done:
Lipophilicity data were measured with the Carrier mediated distribution system (CAMDIS) as described in EP1705474A1.

On to `FC1(F)CCN(c2nsc(N3CCN(CCc4ccc(Cl)cc4)CC3)n2)CC1` [Example 2, 1-[2-(4-Chloro-phenyl)-ethyl]-4-[3-(4,4-difluoro-piperidin-1-yl)-[1,2,4]thiadiazol-5-yl]-piperazine], for which the microsomal CLint in series [1] was determined as 80 µL/min/mg; in series [2] it was 17 µL/min/mg. The EC50 in the series with M17_3TAU(P301L) cells came to 0.0536 µM. For the same compound, the logD in series [3] was determined as 2.93.
The compound `Fc1ccc(CCN2CCN(c3nc(NC4CCCCC4)ns3)CC2)cc1F` [Example 17, Cyclohexyl-(5-{4-[2-(3,4-difluoro-phenyl)-ethyl]-piperazin-1-yl}-[1,2,4]thiadiazol-3-yl)-amine] had a 50% effective concentration (EC50) in the series on M17_3TAU(P301L) cells of 0.0038 µM.
On the same count and under the same terms, next, `Fc1ccc(CCN2CCN(c3nc(N4CCCCC4)ns3)CC2)cc1F` [Example 18, 1-[2-(3,4-Difluoro-phenyl)-ethyl]-4-(3-piperidin-1-yl-[1,2,4]thiadiazol-5-yl)-piperazine]: 0.0464 µM.
The same measure, in the same setting: next, `Fc1ccc(CCN2CCN(c3nc(NC4CCC(C(F)(F)F)CC4)ns3)CC2)cc1F` (stereo not drawn) [Example 19, (5-{4-[2-(3,4-Difluoro-phenyl)-ethyl]-piperazin-1-yl}[1,2,4]thiadiazol-3-yl)-(4-trifluoromethyl-cyclohexyl)-amine]: 0.34 µM; `CCCCN(CC)c1nsc(N2CCN(CCc3ccc(F)c(F)c3)CC2)n1` [Example 20, Butyl-(5-{4-[2-(3,4-difluoro-phenyl)-ethyl]-piperazin-1-yl}-[1,2,4]thiadiazol-3-yl)-ethyl-amine]: 0.709 µM; `COc1ccc(CCN2CCN(c3nc(C4CCCCC4)ns3)CC2)cc1` [Example 21, 1-(3-Cyclohexyl-[1,2,4]thiadiazol-5-yl)-4-[2-(4-methoxy-phenyl)-ethyl]-piperazine]: 0.0022 µM.
Consider `COc1cccc(CCN2CCN(c3nc(C4CCCCC4)ns3)CC2)c1` [Example 22, 1-(3-Cyclohexyl-[1,2,4]thiadiazol-5-yl)-4-[2-(3-methoxy-phenyl)-ethyl]-piperazine], for which a half-maximal effect in the series with M17_3TAU(P301L) cells (EC50) was put at 0.003 µM.
`CCCCc1nsc(N2CCN(CCc3ccc(OC)cc3)CC2)n1` [Example 23, 1-(3-Butyl-[1,2,4]thiadiazol-5-yl)-4-[2-(4-methoxy-phenyl)-ethyl]-piperazine] had a 50% effective concentration (EC50) in the series with M17_3TAU(P301L) cells of 0.0005 µM.
Same read-out and setting: next, `COc1ccc(CCN2CCN(c3nc(C4CC4)ns3)CC2)cc1` [Example 24, 1-(3-Cyclopropyl-[1,2,4]thiadiazol-5-yl)-4-[2-(4-methoxy-phenyl)-ethyl]-piperazine]: 0.0445 µM; `CCCCc1nsc(N2CCN(CCc3cccc(OC)c3)CC2)n1` [Example 25, 1-(3-Butyl-[1,2,4]thiadiazol-5-yl)-4-[2-(3-methoxy-phenyl)-ethyl]-piperazine]: 0.0022 µM; `COc1cccc(CCN2CCN(c3nc(C4CC4)ns3)CC2)c1` [Example 26, 1-(3-Cyclopropyl-[1,2,4]thiadiazol-5-yl)-4-[2-(3-methoxy-phenyl)-ethyl]-piperazine]: 0.41 µM.
Same read-out and setting: the result for `Fc1ccc(CCN2CCN(c3nc(C4CCOCC4)ns3)CC2)cc1` [Example 27, 1-[2-(4-Fluoro-phenyl)-ethyl]-4-[3-(tetrahydro-pyran-4-yl)-[1,2,4]thiadiazol-5-yl]-piperazine] reads 0.309 µM; that for `COc1ccc(CCN2CCN(c3nc(C4CCOCC4)ns3)CC2)cc1` [Example 28, 1-[2-(4-Methoxy-phenyl)-ethyl]-4-[3-(tetrahydro-pyran-4-yl)[1,2,4]thiadiazol-5-yl]-piperazine], 0.0333 µM; that for `COc1cc(CCN2CCN(c3nc(C4CCOCC4)ns3)CC2)ccn1` [Example 29, 1-[2-(2-Methoxy-pyridin-4-yl)-ethyl]-4-[3-(tetrahydro-pyran-4-yl)-[1,2,4]thiadiazol-5-yl]-piperazine], 0.203 µM.
On the same count and under the same terms, next, `Cc1ccccc1CN1CCN(c2nc(C3CCOCC3)ns2)CC1` [Example 30, 1-(2-Methyl-benzyl)-4-[3-(tetrahydro-pyran-4-yl)-[1,2,4]thiadiazol-5-yl]-piperazine]: 0.414 µM; `Fc1ccc(CCN2CCN(c3nc(C4CCOCC4)ns3)CC2)cc1F` [Example 31, 1-[2-(3,4-Difluoro-phenyl)-ethyl]-4-[3-(tetrahydro-pyran-4-yl)-[1,2,4]thiadiazol-5-yl]-piperazine]: 0.308 µM.
Take `Clc1ccc(CCN2CCN(c3nc(Cc4ccc(Cl)cc4)ns3)CC2)cc1` [reference compound]: the results for the microsomal CLint in series [1] and in series [2] were 48 µL/min/mg and 43 µL/min/mg, respectively.

These data come from patent publication US9808456B2, “Piperazine thiazole derivatives useful in the treatment of tauopathies such as Alzheimer's disease” (REMYND NV, priority 2011, dated 2017).
